The results in this text go back to PMC9329436, “Optimization of the 4-anilinoquin(az)oline scaffold as epidermal growth factor receptor (EGFR) inhibitors for chordoma utilizing a toxicology profiling assay platform” (Scientific Reports, 2022).

Data set [1] relates to U-CH12 patient-derived chordoma cell line. The data set can be described thus: Cell viability assay (alamarBlue, 72 h), U-CH12. The class given is cell-based, human. Particulars: n = 4, 72 h. The method in brief: (§1)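 Patient-derived chordoma lines and WS1 fibroblasts seeded in 384-well plates, dosed in quadruplicate 24 h after plating.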
Data set [2] deals with 320 wild-type protein kinases (Homo sapiens, UniProt Q9H422). The class given is biochemical. Particulars: singlicate. The source says: (§2) Table S4. Profiling of two compounds at two concentrations against 320 wild-type protein kinases; singlicate measurement; Residual activities (% of control).
Sequence of 320 wild-type protein kinases (Homo sapiens, UniProt Q9H422) (Q9H422 whole entry): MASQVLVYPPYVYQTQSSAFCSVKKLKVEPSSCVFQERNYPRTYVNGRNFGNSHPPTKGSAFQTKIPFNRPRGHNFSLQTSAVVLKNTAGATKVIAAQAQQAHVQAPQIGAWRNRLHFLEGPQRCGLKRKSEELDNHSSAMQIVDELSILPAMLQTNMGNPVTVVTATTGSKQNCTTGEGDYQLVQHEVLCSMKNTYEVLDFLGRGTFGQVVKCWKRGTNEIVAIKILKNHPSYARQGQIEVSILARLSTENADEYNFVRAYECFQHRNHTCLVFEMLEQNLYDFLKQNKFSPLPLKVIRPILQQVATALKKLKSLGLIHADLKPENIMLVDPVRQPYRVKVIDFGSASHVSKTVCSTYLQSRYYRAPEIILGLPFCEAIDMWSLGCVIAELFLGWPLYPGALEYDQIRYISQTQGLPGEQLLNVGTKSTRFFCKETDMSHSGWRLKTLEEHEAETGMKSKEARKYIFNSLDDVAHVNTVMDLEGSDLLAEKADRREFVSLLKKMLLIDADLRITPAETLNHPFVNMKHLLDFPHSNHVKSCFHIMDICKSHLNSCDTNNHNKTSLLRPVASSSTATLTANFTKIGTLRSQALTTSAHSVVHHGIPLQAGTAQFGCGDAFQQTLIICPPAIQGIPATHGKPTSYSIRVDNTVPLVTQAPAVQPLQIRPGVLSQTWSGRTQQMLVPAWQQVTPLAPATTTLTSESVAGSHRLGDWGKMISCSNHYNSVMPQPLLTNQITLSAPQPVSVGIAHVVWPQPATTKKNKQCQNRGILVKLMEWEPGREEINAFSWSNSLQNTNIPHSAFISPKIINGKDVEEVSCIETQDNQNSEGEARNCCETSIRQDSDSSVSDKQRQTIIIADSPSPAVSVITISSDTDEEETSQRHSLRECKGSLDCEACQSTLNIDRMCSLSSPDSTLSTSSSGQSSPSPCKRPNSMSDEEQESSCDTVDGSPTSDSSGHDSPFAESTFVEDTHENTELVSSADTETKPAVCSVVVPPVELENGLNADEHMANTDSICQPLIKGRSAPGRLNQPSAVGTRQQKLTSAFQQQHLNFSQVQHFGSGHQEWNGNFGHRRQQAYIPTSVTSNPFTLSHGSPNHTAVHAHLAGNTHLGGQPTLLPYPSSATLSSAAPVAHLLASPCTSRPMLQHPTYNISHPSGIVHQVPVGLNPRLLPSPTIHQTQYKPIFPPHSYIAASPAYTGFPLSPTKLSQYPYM
The target in data set [3] is 320 wild-type protein kinases (Homo sapiens, UniProt Q8IU85). The class given is biochemical. Particulars: CAMK1D, singlicate.
Sequence of 320 wild-type protein kinases (Homo sapiens, UniProt Q8IU85) (Q8IU85 whole entry): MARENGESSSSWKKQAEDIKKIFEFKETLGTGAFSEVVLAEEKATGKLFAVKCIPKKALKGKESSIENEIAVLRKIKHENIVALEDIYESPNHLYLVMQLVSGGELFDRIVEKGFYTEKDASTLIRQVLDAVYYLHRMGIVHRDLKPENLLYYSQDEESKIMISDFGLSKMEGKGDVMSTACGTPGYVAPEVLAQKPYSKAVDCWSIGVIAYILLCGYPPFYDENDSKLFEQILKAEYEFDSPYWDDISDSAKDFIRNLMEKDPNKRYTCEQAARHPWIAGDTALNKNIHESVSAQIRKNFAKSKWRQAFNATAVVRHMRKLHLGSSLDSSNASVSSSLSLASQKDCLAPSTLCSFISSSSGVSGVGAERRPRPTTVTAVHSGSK
Description: as §2

In data set [4] the target is 320 wild-type protein kinases (Homo sapiens, UniProt O75582). It is filed as biochemical. Particulars: kinase RPS6KA5, singlicate.
Sequence of 320 wild-type protein kinases (Homo sapiens, UniProt O75582) (O75582 whole entry): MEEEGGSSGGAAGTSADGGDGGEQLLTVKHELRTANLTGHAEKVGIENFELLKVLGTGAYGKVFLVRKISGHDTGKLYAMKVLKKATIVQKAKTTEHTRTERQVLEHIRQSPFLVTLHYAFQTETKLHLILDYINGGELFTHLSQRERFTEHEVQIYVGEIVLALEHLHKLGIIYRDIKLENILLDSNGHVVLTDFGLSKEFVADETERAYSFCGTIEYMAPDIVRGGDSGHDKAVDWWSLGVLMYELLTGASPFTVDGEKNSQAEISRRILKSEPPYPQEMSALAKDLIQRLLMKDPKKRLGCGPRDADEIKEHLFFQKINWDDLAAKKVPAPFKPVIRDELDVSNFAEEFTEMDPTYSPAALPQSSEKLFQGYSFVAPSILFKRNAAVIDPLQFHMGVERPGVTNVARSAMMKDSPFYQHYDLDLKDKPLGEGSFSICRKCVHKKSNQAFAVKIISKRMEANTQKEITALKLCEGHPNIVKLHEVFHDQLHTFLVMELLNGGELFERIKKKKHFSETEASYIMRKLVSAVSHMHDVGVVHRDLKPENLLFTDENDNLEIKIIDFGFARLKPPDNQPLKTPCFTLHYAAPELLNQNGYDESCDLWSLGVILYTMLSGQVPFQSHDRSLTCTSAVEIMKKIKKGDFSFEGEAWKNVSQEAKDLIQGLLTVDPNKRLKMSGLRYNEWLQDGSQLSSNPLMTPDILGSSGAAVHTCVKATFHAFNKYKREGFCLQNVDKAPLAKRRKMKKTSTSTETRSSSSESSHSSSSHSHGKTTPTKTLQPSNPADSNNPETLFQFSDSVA
Description: as §2

The subject of data set [5] is U-CH7 patient-derived chordoma cell line. Description: Cell viability assay (alamarBlue, 72 h), U-CH7. It is filed as cell-based, human. Particulars: n = 4, 72 h. The method in brief:
as §1
Background: Resazurin is reduced to fluorescent resorufin, in cell work by metabolically active cells.

The subject of the next data set is HL60 cells. Description: AsedaSciences SYSTEMETRIC Cell Health Screen (flow cytometry toxicity profiling). Particulars: HL60, 4 h, 5 nM–100 µM; for CC: Cell Cycle score / CM: Cell morphology score / CMI: Cell membrane integrity score / GSH: Glutathione score / MMP: Mitochondrial membrane depolarization score / NMI1: Nuclear membrane integrity 1 score / NMI2: Nuclear membrane integrity 2 score / ROS: Reactive superoxide species score: probability 0–1, n = 2; for CHI: Cell Health Index: probability (0–1) of high-risk class, n = 2. The method in brief:
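Risk scores derive from a logistic-regression ML classifier comparing flow-cytometric stress phenotypes with those of 300 reference compounds of known high or low human risk. Phenotypes: light scatter plus fluorescent physiological dyes, twelve parameters, no gating. Compounds tested 5 nM–100 µM (3× steps, duplicate) on HL60 cells, 4 h, 37 °C.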
Background: In flow cytometry, cells or beads pass a laser one at a time.

In the next data set the test system is U-CH2 chordoma cell line. Description: Cell viability assay (alamarBlue, 72 h), U-CH2. The class given is cell-based, human. Particulars: n = 4, 72 h. The method in brief: (§3)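 Compound added in quadruplicate 24 h after plating; cultures maintained in 4:1 IMDM:RPMI, 10% FBS, gel-coated flasks.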
Data set [6] deals with UM-Chor1 patient-derived chordoma cell line. Description: Cell viability assay (alamarBlue, 72 h), UM-Chor1. It is filed as cell-based, human. Particulars: n = 4, 72 h. The method in brief:
as §1

Data set [7] has as its system WS1 human fibroblast cell line. The data set can be described thus: Cell viability assay, WS1 toxicity control. It is filed as cell-based. Particulars: n = 4, nonspecific toxicity control. The method in brief:
as §1

The target of a further data set is EGFR (Homo sapiens, UniProt P00533). Description: ProQinase in-cell EGFR assay (EGFR phosphorylation in A431 cells). The class given is cell-based. More on the design: This cell line endogenously expresses a high level of EGFR; endogenous in cells; host or cells: A431. The source says:
In addition, we ran an EGFR in-cell target engagement assay, measuring in-cell EGFR phosphorylation, using the human epidermoid carcinoma cell line A431. This cell line endogenously expresses a high level of EGFR, and stimulation of these cells with human epidermal growth factor (EGF) results in receptor tyrosine autophosphorylation.

In the next data set the test system is U-CH1 chordoma cell line. The data set can be described thus: Cell viability assay (alamarBlue, 72 h), U-CH1. The class given is cell-based, human. Particulars: n = 4, 72 h. In short, it runs like this:
as §3

The mark [8] stands for this setting: ProQinase in-cell EGFR assay, A431 cells, n = 1.

Like-named read-outs stand apart in the source and are kept apart here.

Sequence of EGFR (P00533 25-1210): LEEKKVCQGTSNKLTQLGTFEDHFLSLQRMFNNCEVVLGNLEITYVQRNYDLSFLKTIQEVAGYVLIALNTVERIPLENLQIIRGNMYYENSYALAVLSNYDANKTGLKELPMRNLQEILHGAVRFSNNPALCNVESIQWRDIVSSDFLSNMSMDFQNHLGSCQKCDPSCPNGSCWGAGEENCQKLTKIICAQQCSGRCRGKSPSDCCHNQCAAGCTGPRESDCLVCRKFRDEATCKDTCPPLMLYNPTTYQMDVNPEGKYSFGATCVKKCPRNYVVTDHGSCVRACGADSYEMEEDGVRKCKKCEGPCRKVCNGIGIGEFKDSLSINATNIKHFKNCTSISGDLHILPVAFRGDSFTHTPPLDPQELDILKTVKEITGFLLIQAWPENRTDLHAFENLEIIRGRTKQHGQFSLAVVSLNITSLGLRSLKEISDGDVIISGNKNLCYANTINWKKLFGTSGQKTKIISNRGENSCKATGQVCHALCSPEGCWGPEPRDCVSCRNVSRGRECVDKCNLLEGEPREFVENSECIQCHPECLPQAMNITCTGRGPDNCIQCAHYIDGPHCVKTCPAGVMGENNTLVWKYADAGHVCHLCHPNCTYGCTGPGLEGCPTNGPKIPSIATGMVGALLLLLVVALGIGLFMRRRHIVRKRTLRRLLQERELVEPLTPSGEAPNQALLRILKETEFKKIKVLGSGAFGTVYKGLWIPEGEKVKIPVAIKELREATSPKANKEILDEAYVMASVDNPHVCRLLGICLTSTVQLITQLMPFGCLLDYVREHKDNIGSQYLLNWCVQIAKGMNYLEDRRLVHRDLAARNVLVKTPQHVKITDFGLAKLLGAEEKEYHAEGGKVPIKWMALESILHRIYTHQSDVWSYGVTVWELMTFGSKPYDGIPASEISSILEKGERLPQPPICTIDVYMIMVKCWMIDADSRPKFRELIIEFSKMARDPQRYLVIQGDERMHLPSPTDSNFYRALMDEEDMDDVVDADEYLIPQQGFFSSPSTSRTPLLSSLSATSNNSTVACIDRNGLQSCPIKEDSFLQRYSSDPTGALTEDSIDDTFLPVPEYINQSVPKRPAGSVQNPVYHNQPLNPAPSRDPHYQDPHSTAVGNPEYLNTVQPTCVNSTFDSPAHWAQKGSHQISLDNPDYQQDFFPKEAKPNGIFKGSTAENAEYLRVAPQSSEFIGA

As for `C#Cc1cc(Nc2ncnc3cc(OC)c(OC)cc23)ccc1Cl` [Compound 45], the half-maximal inhibitory concentration (IC50) in data set [1] was 3000 nM; in data set [5], 74 µM; in the data set with U-CH2 chordoma cell line, 35 µM; in data set [6] it was 60 µM; in [7] it was over 100 µM; on EGFR (setting [8]), 18 nM. In addition, the IC50 was under 100 nM on EGFR (in-cell EGFR inhibition) and over 100 µM in the data set with U-CH1 chordoma cell line. The Residual activity in [2] (HIPK3, 1.0E-06 M) is recorded as 97 % of control; in data set [2] (HIPK3, 1.0E-07 M), 102 % of control; in data set [3] (1.0E-06 M), 84 % of control; in [3] (1.0E-07 M), 99 % of control. Besides, the “Residual activity, RPS6KA5” value is 107 % of control in [4] (assay conc. 1.0E-06 M) and 104 % of control in data set [4] (assay conc. 1.0E-07 M). Also, in the data set on HL60 cells, the “CC: Cell Cycle score” value is reported as 0.10. For the same compound, in the data set on HL60 cells, the “CM: Cell morphology score” value was 1.00. Further, in the data set with HL60 cells, the “CMI: Cell membrane integrity score” value turned out to be 0.51. Moreover, the “GSH: Glutathione score” value with HL60 cells worked out at 0.079. The “MMP: Mitochondrial membrane depolarization score” value with HL60 cells came to 0.48. Further, in the data set with HL60 cells, the “NMI1: Nuclear membrane integrity 1 score” value was 0.60. For the same compound, the “NMI2: Nuclear membrane integrity 2 score” value with HL60 cells came to 0.40. Besides, the “ROS: Reactive superoxide species score” value with HL60 cells was determined as 0.77. In addition, in the data set on HL60 cells, the “CHI: Cell Health Index” value is reported as 0.60.

For the compound `C#Cc1cc(Nc2ncnc3cc(I)ccc23)ccc1Cl` [Compound 41], the IC50 came to 960 nM in data set [1]; 8 µM in data set [5]; 16 µM with U-CH2 chordoma cell line; 25 µM in data set [6]; 36 µM in [7]; 3700 nM against EGFR (setting [8]). Besides, the IC50 in the data set on U-CH1 chordoma cell line was determined as 9.1 µM. Moreover, the Residual activity in data set [2] (HIPK3, 1.0E-06 M) is 103 % of control; in data set [2] (HIPK3, 1.0E-07 M) it was 98 % of control; in data set [3] (1.0E-06 M), 77 % of control; in [3] (1.0E-07 M), 86 % of control. The results for the “Residual activity, RPS6KA5” value in data set [4] (assay conc. 1.0E-06 M) and in data set [4] (assay conc. 1.0E-07 M) were 99 % of control and 112 % of control, respectively. For the same compound, the “CC: Cell Cycle score” value in the data set with HL60 cells is given as 0.91. For the same compound, the “CM: Cell morphology score” value in the data set with HL60 cells is 1.00. For the same compound, in the data set with HL60 cells, the “CMI: Cell membrane integrity score” value came out at 1.00. The “GSH: Glutathione score” value with HL60 cells turned out to be 0.99. Further, in the data set with HL60 cells, the “MMP: Mitochondrial membrane depolarization score” value is on record as 1.00. Also, the “NMI1: Nuclear membrane integrity 1 score” value in the data set with HL60 cells is recorded as 1.00. Further, the “NMI2: Nuclear membrane integrity 2 score” value in the data set on HL60 cells was 1.00. In addition, the “ROS: Reactive superoxide species score” value in the data set with HL60 cells is recorded as 0.99. The “CHI: Cell Health Index” value in the data set on HL60 cells stood at 0.88.

Usually IC50 stands for the concentration that inhibits the measured activity by half. Higher therefore signals lower potency.
